Reference: ChEMBL document CHEMBL2040824, “The impact of ionization States of matrix metalloproteinase inhibitors on docking-based inhibitor design” (ACS Med Chem Lett, 2011)
Activity calls are given as the source filed them. The calls are words filed in the database; no cut-off is given here.

Legend:
SVR = test: Antiproliferative activity against mouse SVR cells at 20 ug/ml after 48 hrs by Coulter counting method; assay type: functional, cell-based
[1] = target: Matrix metalloproteinase-9 (Homo sapiens, UniProt P14780); test: Inhibition of MMP9
Sequence of Matrix metalloproteinase-9 (P14780 whole entry): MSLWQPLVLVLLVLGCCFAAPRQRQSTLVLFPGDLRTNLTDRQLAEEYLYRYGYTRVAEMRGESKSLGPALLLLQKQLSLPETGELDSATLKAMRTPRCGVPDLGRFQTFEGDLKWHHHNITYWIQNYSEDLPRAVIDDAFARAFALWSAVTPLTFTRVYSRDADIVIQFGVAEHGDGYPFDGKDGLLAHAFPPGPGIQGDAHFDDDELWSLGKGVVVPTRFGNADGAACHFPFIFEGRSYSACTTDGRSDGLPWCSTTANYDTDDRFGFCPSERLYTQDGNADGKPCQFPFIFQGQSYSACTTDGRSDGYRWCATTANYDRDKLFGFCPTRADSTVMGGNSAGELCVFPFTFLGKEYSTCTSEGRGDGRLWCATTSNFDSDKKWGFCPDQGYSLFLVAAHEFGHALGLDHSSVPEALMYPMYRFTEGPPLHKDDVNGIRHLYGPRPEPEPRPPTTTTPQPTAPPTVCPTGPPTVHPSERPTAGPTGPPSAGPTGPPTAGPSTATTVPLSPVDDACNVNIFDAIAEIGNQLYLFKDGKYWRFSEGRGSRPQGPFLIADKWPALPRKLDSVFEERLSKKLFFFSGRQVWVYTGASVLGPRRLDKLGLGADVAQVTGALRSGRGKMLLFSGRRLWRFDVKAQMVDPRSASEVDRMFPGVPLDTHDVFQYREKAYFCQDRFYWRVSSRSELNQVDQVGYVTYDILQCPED

Compound	Activity (SVR)	IC50 [1]
CN(C)c1ccc(/C=C/C(=O)c2ccco2)cc1	Active	
Cc1cc(C)n(-c2nc(-c3ccccc3)cc(-c3ccccc3)n2)n1	Active	
CC1(C)OC[C@H](C(CS(=O)(=O)c2ccc(Oc3ccc(OC(F)(F)F)cc3)cc2)N(O)C=O)O1 (some centres not stated)		0.5 nM
CCC1(CC)OC[C@H](C(CS(=O)(=O)c2ccc(Oc3ccc(OC(F)(F)F)cc3)cc2)N(O)C=O)O1 (some centres not stated)		1.1 nM
O=CN(O)C(CS(=O)(=O)c1ccc(Oc2ccc(OC(F)(F)F)cc2)cc1)C(CO)CO (configuration not stated)		0.49 nM
CC1(C)NC(=O)N(CC(CS(=O)(=O)c2ccc(-c3ccc(OC(F)(F)F)cc3)cc2)N(O)C=O)C1=O (configuration not stated)		0.34 nM
COc1cc(/C=C/C(=O)CC(=O)/C=C/c2ccc(O)c(OC)c2)ccc1O	Active	
CC1(C)C[C@@H](C(CS(=O)(=O)c2ccc(Oc3ccc(OC(F)(F)F)cc3)cc2)N(O)C=O)N(S(C)(=O)=O)C1 (some centres not stated)		2 nM
C[C@@H]1OC(C)(C)O[C@H]1C(CS(=O)(=O)c1ccc(Oc2ccc(OC(F)(F)F)cc2)cc1)N(O)C=O (some centres not stated)		1.1 nM
Cc1cccc(-c2nnc(-c3cccc(NC(=O)c4ccco4)c3)o2)c1	Active	
CC1(C)NC(=O)N(CC(CS(=O)(=O)c2ccc(Oc3ccc(Cl)cc3)cc2)N(O)C=O)C1=O (configuration not stated)		37 nM
Brc1ccc(/C=N/Nc2nc(-c3ccccc3)cc(-c3ccccc3)n2)cc1	Active	
